{"source": "paper PMC9260974", "about": "(BMC Pharmacology & Toxicology, 2022)", "origin": "cited, not measured here", "details": "in vivo, po; cited from earlier work"}
{"smiles": "C[C@H](CS)C(=O)N1CCC[C@H]1C(=O)O", "note": "[captopril]", "values": [{"measurement": "Reduction of bioavailability by food", "value": "35-50%"}]}
